Read-outs that look alike come from different tables or passages of the source.
How the values were obtained:
PSN1 cells = assay: cells; conditions: for CC50: read-out: LC50; for IC (TGI): read-out: TGI
Description: (§1) The aim of this assay is to evaluate the in vitro cytostatic (ability to delay or arrest tumor cell growth) or cytotoxic (ability to kill tumor cells) activity of the samples being tested.
(§2) A colorimetric assay, using sulforhodamine B (SRB) reaction has been adapted to provide a quantitative measurement of cell growth and viability (following the technique described by Skehan et al. J. Natl. Cancer Inst. 1990, 82, 1107-1112). Another colorimetric assay based on 3-(4,5-Dimethylthiazol-2-yl)-2,5-diphenyltetrazolium bromide (MTT) reduction to a purple formazan has been also used to assess the antiproliferative activity (following the technique described by Mosmann et al. J. Immunol. Meth. 1983, 65, 55-63).
(§3) These forms of assays employ 96-well cell culture microplates following the standards of the American National Standards Institute and the Society for Laboratory Automation and Screening (ANSI SLAS 1-2004 (R2012) Oct. 12, 2011. All the cell lines used in this study were obtained from the American Type Culture Collection (ATCC) and derive from different types of human cancer.
(§4) A549, HT29, MDA-MB-231 and PSN1 cells were maintained in Dulbecco's Modified Eagle Medium (DMEM) while PC-3 and 22Rv1 cells were maintained in Roswell Park Memorial Institute Medium (RPMI). All cell lines were supplemented with 10% Fetal Bovine Serum (FBS), 2 mM L-glutamine, 100 U/mL penicillin, and 100 […] at 37° C., 5% CO2 and 98% humidity. For the experiments, cells were harvested from subconfluent cultures using trypsinization and resuspended in fresh medium before counting and plating.
(§5) A549, HT29, MDA-MB-231 and PSN1 cells were seeded in 96 well microtiter plates, at 5000 cells per well in aliquots of 150 μL, and allowed to attach to the plate surface for 18 hours (overnight) in drug free medium. After that, one control (untreated) plate of each cell line was fixed (as described below) and used for time zero reference value. Culture plates were then treated with test compounds (50 μL aliquots of 4× stock solutions in complete culture medium plus 4% DMSO) using ten 2/5 serial dilutions (concentrations ranging from 10 to 0.003 μg/mL) and triplicate cultures (1% final concentration in DMSO). After 72 hours treatment, the antitumor effect was measured by using the SRB methodology: Briefly, cells were washed twice with PBS, fixed for 15 min in 1% glutaraldehyde solution at room temperature, rinsed twice in PBS, and stained in 0.4% SRB solution for 30 min at room temperature. Cells were then rinsed several times with 1% acetic acid solution and air-dried at room temperature.
(§6) Effects on cell growth and survival were estimated by applying the NCI algorithm (Boyd M R and Paull K D. Drug Dev. Res. 1995, 34, 91-104). The values obtained in triplicate cultures were fitted by nonlinear regression to a four-parameters logistic curve by nonlinear regression analysis.

HT29 cells = assay: cells; conditions: for CC50: read-out: LC50; for IC (TGI): read-out: TGI
Description: as §1, §2, §3, §4, §5, §6

A549 cells = assay: cells; conditions: for CC50: read-out: LC50; for IC (TGI): read-out: TGI
Description: as §1, §2, §3, §4, §5, §6

MDA-MB-231 cells = assay: cells; conditions: for CC50: read-out: LC50; for IC (TGI): read-out: TGI
Description: as §1, §2, §3, §4, §5, §6

H82 tumors = assay: In vivo xenograft, human lung (SCLC) H82; conditions: iv weekly, 47-R 0.1 mg/Kg, Compound D 0.5 mg/Kg
H526 tumors = assay: In vivo xenograft, human lung (SCLC) H526; conditions: iv weekly, 47-R 0.1 mg/Kg, Compound D 0.5 mg/Kg
Description: Female athymic nu/nu mice (Harlan Laboratories Models, S. L. Barcelona, Spain or Envigo, Spain) were utilized for all experiments. Animal were housed in individually ventilated cages Sealsafe® Plus, Techniplast S.P.A.), up to ten per cage on a 12-hour light-dark cycle at 21-23° C. and 40-60% humidity. Mice were allowed free access to irradiated standard rodent diet (Tecklad 2914C) and sterilized water. Animals were acclimated for at least 5 days prior to tumor implantation with a tumor cell suspension.
H526 cells were grown as a suspension and maintained by addition of fresh medium, as the cell density increases, every 2 to 3 days. Every week, culture was reestablished by centrifugation of the suspension with subsequent resuspension in fresh medium at a concentration of 1×10^5 cell/mL. Each animal was subcutaneously implanted (on the right flank using 26 G needle and a 1 cc syringe) at 4-6 weeks of age with 5×10^6 H526 cells suspended in 0.05 mL of a solution consisting of 50% Matrigel® (Corning Incorporated Life Sciences) and 50% medium without serum or antibiotics.
Treatment tolerability was assessed by monitoring body weight evolution, clinical signs of systemic toxicity, as well as evidences of local damage in the injection site.
Treatments producing >20% lethality and/or 20% net body weight loss were considered toxic.

[1] = Homo sapiens, PSN1, 72 h, PSN1, 72 hours treatment, SRB
[2] = MDA-MB-231, 72 hours treatment, SRB

| SMILES | GI50 (PSN1 cells; Homo sapiens, PSN1, 72 h) | CC50 (PSN1 cells; Homo sapiens, PSN1, 72 h) | IC (TGI) (PSN1 cells; Homo sapiens, PSN1, 72 h) | GI50 (HT29 cells; Homo sapiens, HT-29, 72 h) | CC50 (HT29 cells; Homo sapiens, HT-29, 72 h) | IC (TGI) (HT29 cells; Homo sapiens, HT-29, 72 h) | GI50 (A549 cells; Homo sapiens, A549, 72 h) | CC50 (A549 cells; Homo sapiens, A549, 72 h) | IC (TGI) (A549 cells; Homo sapiens, A549, 72 h) | GI50 (MDA-MB-231 cells; Homo sapiens, MDA-MB-231, 72 h) | CC50 (MDA-MB-231 cells; Homo sapiens, MDA-MB-231, 72 h) | IC (TGI) (MDA-MB-231 cells; Homo sapiens, MDA-MB-231, 72 h) | further results |
| --- | --- | --- | --- | --- | --- | --- | --- | --- | --- | --- | --- | --- | --- |
| COc1ccc2[nH]c3c(c2c1)C[C@H](C(=O)O)N[C@]31CS[C@@H]2c3c(OC(C)=O)c(C)c4c(c3[C@H](COC1=O)N1[C@@H]2[C@H]2c3c(cc(C)c(OC)c3O)C[C@@H]([C@@H]1O)N2C)OCO4 [Compound 29-R] | 30.2 nM | 35 nM | 31.4 nM | 30.2 nM | > 1210 nM | 32.6 nM | 90.5 nM | > 1210 nM | 193 nM | 16.9 nM | 157 nM | 27.7 nM | – |
| COc1ccc2[nH]c3c(c2c1)C[C@@H](C(=O)O)N[C@]31CS[C@@H]2c3c(OC(C)=O)c(C)c4c(c3[C@H](COC1=O)N1[C@@H]2[C@H]2c3c(cc(C)c(OC)c3O)C[C@@H]([C@@H]1O)N2C)OCO4 [Compound 29-S] | 386 nM | 688 nM | 507 nM | 362 nM | 832 nM | 531 nM | 615 nM | > 1210 nM | > 1210 nM | 217 nM | 688 nM | 374 nM | – |
| COc1c(C)cc2c(c1O)[C@@H]1[C@@H]3[C@@H]4SC[C@]5(NCCc6c5oc5ccccc65)C(=O)OC[C@@H](c5c6c(c(C)c(OC(C)=O)c54)OCO6)N3[C@@H](C#N)[C@H](C2)N1C [Compound 31] | 6.8 nM | 43.1 nM | 15.7 nM | 10.5 nM | > 131 nM | 15.7 nM | 19.6 nM | 23.5 nM | 20.9 nM | 8.89 nM | 35.3 nM | 17 nM | – |
| COc1ccc2oc3c(c2c1)CCN[C@]31CS[C@@H]2c3c(OC(C)=O)c(C)c4c(c3[C@H](COC1=O)N1[C@@H]2[C@H]2c3c(cc(C)c(OC)c3O)C[C@@H]([C@@H]1C#N)N2C)OCO4 [Compound 34] | 54.1 nM | > 126 nM | 59.1 nM | 54.1 nM | 125 nM | 85.5 nM | 59.1 nM | > 126 nM | 80.5 nM | 45.3 nM | 112 nM | 76.7 nM | – |
| COc1c(C)cc2c(c1O)[C@@H]1[C@@H]3[C@@H]4SC[C@]5(N[C@@H](CO)Cc6c5oc5ccccc65)C(=O)OC[C@@H](c5c6c(c(C)c(OC(C)=O)c54)OCO6)N3[C@@H](C#N)[C@H](C2)N1C [Compound 38-R] | – | 1.76 nM | 0.994 nM | 0.541 nM | > 126 nM | 0.591 nM | 0.654 nM | > 126 nM | 1.04 nM | 0.453 nM | 2.01 nM | 0.843 nM | GI50 (PSN1 cells; [1]): 0.654 nM |
| COc1c(C)cc2c(c1O)[C@@H]1[C@@H]3[C@@H]4SC[C@]5(N[C@H](CO)Cc6c5oc5ccccc65)C(=O)OC[C@@H](c5c6c(c(C)c(OC(C)=O)c54)OCO6)N3[C@@H](C#N)[C@H](C2)N1C [Compound 38-S] | – | 15.1 nM | 8.18 nM | 4.53 nM | > 126 nM | 7.05 nM | 8.05 nM | 9.44 nM | 8.55 nM | 2.52 nM | 7.8 nM | 4.28 nM | GI50 (PSN1 cells; [1]): 5.03 nM |
| COc1c(C)cc2c(c1O)[C@@H]1[C@@H]3[C@@H]4SC[C@]5(N[C@@H](CN)Cc6c5oc5ccccc65)C(=O)OC[C@@H](c5c6c(c(C)c(OC(C)=O)c54)OCO6)N3[C@@H](O)[C@H](C2)N1C [Compound 47-R] | – | 3.31 nM | – | – | > 127 nM | – | – | – | – | – | 2.55 nM | – | Median Tumor Volume (H82 tumors; Table 57, Day 0): 169.0 mm^3; Median Tumor Volume (H82 tumors; Table 57, Day 2): 371.6 mm^3; Median Tumor Volume (H82 tumors; Table 57, Day 5): 888.8 mm^3; Median Tumor Volume (H82 tumors; Table 57, Day 7): 1314.2 mm^3; Median Tumor Volume (H82 tumors; Table 57, Day 9): 1811.0 mm^3; Median Tumor Volume (H82 tumors; Table 57, Day 12): 2055.4 mm^3; Median Tumor Volume (H526 tumors; Table 56, Day 0): 211.5 mm^3; Median Tumor Volume (H526 tumors; Table 56, Day 2): 367.9 mm^3; Median Tumor Volume (H526 tumors; Table 56, Day 4): 583.7 mm^3; Median Tumor Volume (H526 tumors; Table 56, Day 7): 941.7 mm^3; Median Tumor Volume (H526 tumors; Table 56, Day 9): 1305.2 mm^3; Median Tumor Volume (H526 tumors; Table 56, Day 11): 1484.7 mm^3; Median Tumor Volume (H526 tumors; Table 56, Day 14): 2025.0 mm^3 |
| COc1c(C)cc2c(c1O)[C@@H]1[C@@H]3[C@@H]4SC[C@]5(N[C@H](CN)Cc6c5oc5ccccc65)C(=O)OC[C@@H](c5c6c(c(C)c(OC(C)=O)c54)OCO6)N3[C@@H](O)[C@H](C2)N1C [Compound 47-S] | – | 12.7 nM | – | – | > 127 nM | – | – | > 127 nM | – | – | 16.6 nM | – | – |
| COc1ccc2[nH]c3c(c2c1)CCNC31CSC2c3c(OC(C)=O)c(C)c4c(c3C(COC1=O)N1C(C#N)C3Cc5cc(C)c(OC)c(O)c5C(C21)N3C)OCO4 (centres unmarked) [E] | – | – | – | – | – | – | – | – | – | – | – | – | GI50 (PSN1 cells; PSN1, 72 hours treatment, SRB): 2.77 nM; TGI (PSN1 cells; PSN1, 72 hours treatment, SRB): 4.53E−09 Molar; CC50 (PSN1 cells; PSN1, 72 hours treatment, SRB): 8.94 nM; GI50 (HT29 cells; HT29, 72 hours treatment, SRB): 3.15 nM; TGI (HT29 cells; HT29, 72 hours treatment, SRB): 3.40E−09 Molar; CC50 (HT29 cells; HT29, 72 hours treatment, SRB): > 126 nM; GI50 (A549 cells; A549, 72 hours treatment, SRB): 3.28 nM; TGI (A549 cells; A549, 72 hours treatment, SRB): 3.40E−09 Molar; CC50 (A549 cells; A549, 72 hours treatment, SRB): 4.41 nM; GI50 (MDA-MB-231 cells; [2]): 2.27 nM; TGI (MDA-MB-231 cells; [2]): 3.78E−09 Molar; CC50 (MDA-MB-231 cells; [2]): 7.43 nM |
